Test results taken from patent US10414811B2, “Protease-resistant lipidated GLP-1 analogs” (MEDIMMUNE LIMITED, priority 2015, dated 2019).
Where two headings read alike, the source gives them in different places. Numbered stars: 1 amine (or outer) side, 2 acyl side, 3 side chain; on linkers, the order of the positions; unused ones are H or OH. Square brackets hold non-standard residues; d marks the D form. Side chains are listed from the residue outwards. Peptide text beside a SMILES is read from it. * marks the point of attachment. C18 diacid = O=C(O)CCCCCCCCCCCCCCCCC(=O)*; γGlu = O=C(O)[C@H](CCC(=O)[*:2])N[*:1]; αMeF = C[C@](N)(Cc1ccccc1)C(=O)O; αMeK = C[C@](N)(CCCCN)C(=O)O; αMeS = C[C@](N)(CO)C(=O)O; AEEA = NCCOCCOCC(=O)O; Aib = CC(C)(N)C(=O)O

Experiments:
Type in all cases: cell-based
[1] = biological target: T1, human GLP-1 receptor (GLP-1R) (Homo sapiens, UniProt P43220); assay: cAMP assay, human GLP-1R cells
T1 construct: expressed in transfected cells
T1 sequence (P43220 24-463): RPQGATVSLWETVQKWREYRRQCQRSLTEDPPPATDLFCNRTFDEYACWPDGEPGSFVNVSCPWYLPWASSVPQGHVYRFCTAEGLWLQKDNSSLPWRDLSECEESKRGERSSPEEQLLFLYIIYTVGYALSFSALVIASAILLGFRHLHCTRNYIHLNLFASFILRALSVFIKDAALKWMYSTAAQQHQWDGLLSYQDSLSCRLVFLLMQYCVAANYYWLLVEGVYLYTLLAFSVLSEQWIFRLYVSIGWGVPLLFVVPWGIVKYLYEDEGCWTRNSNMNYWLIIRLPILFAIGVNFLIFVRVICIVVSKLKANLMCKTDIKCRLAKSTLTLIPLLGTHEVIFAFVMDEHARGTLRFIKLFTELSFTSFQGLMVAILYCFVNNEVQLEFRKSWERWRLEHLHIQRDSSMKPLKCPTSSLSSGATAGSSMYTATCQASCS
In short: (§1)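 Peptide-stimulated cAMP measured by two-step HTRF after a 30 min room-temperature incubation with receptor-expressing cells (hGLP-1R, hGIPR at 1×10^5 cells/ml; hGCGR at 2×10^5 cells/ml). Duplicate dilutions; EC50 from 4-parameter logistic fit of % Delta F.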

GLP-1R (INS1e assay) = biological target: T2, GLP-1R (INS1e assay) (Rattus norvegicus, UniProt P32301); assay: INS1e assay, cAMP activity at GLP-1R; settings: mono-lipidated peptides
T2 construct: endogenous in cells; host or cells: INS-1E cells
T2 sequence (P32301 22-463): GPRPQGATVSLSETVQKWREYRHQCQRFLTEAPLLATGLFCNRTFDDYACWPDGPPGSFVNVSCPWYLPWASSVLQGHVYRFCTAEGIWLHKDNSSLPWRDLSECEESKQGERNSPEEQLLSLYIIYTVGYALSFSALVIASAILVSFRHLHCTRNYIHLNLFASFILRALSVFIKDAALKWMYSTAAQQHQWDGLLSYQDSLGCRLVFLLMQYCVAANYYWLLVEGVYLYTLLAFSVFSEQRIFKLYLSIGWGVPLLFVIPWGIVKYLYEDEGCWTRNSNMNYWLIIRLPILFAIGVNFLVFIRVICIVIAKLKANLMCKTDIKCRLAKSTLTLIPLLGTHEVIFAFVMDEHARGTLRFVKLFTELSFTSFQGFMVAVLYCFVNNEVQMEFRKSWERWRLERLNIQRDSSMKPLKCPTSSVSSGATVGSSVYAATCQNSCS
In short: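 It pairs cAMP-d2 acceptor with anti-cAMP cryptate donor, both prepared 1/20 in conjugate/lysis buffer, applied as a two-step protocol.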

[2] = biological target: T3, human glucagon receptor (GCGR) (Homo sapiens, UniProt P47871); assay: cAMP assay, human GCGR cells; settings: cAMP assay
T3 construct: expressed in transfected cells
T3 sequence (P47871 26-477): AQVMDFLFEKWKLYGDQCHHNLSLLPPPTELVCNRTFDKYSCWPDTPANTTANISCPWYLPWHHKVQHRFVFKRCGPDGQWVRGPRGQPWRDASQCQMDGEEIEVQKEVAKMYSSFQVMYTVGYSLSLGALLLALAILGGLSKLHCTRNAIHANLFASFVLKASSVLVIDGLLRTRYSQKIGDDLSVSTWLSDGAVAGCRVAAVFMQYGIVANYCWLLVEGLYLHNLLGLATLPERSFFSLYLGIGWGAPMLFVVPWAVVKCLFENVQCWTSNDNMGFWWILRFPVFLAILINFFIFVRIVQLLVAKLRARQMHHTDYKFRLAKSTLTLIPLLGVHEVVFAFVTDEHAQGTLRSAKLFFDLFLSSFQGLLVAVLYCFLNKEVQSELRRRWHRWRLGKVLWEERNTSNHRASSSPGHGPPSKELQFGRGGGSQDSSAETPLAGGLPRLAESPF
In short: as §1

[3] = biological target: T4, human glucose-dependent insulinotropic peptide receptor (GIPR) (Homo sapiens, UniProt P48546); assay: cAMP assay, human GIPR cells; settings: cAMP assay
T4 construct: expressed in transfected cells
T4 sequence (P48546 22-466): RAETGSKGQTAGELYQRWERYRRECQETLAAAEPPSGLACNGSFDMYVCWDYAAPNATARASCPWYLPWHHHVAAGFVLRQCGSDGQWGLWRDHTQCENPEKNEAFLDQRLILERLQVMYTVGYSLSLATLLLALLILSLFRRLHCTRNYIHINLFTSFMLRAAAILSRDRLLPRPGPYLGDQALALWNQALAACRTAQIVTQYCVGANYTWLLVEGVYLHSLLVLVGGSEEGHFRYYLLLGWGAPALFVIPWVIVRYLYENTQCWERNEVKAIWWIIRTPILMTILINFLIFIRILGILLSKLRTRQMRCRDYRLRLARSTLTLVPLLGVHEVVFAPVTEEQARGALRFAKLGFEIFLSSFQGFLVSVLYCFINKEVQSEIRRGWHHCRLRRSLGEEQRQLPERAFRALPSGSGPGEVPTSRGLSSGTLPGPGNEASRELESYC
In short: as §1

[4] = cAMP assay, first determination (n1), read-out: Primary assay EC50 GLP-1R n1
[5] = cAMP assay, second determination (n2), read-out: Primary assay EC50 GLP-1R n2
[6] = mean of n1 and n2, read-out: Mean pM GLP-1R
[7] = mean of n1 and n2, read-out: INS1e assay EC50 Mean pM GLP-1R
[8] = replicate n1, read-out: INS1e assay EC50 GLP-1R n1
[9] = replicate n2, read-out: INS1e assay EC50 GLP-1R n2
[10] = first determination (n1), read-out: Primary assay EC50 Gluc-R (n1)
[11] = second determination (n2), read-out: Primary assay EC50 Gluc-R (n2)
[12] = first determination (n1), read-out: Primary assay EC50 GIP-R (n1)
[13] = second determination (n2), read-out: Primary assay EC50 GIP-R (n2)

EC50 [1, 4] [pM] | EC50 [1, 5] [pM] | EC50 [1, 6] [pM] | EC50 (GLP-1R (INS1e assay); [7]) [pM] | EC50 (GLP-1R (INS1e assay); [8]) [pM] | EC50 (GLP-1R (INS1e assay); [9]) [pM] | EC50 [2, 10] [nM] | EC50 [2, 11] [nM] | EC50 [3, 12] [nM] | EC50 [3, 13] [nM] | Compound
66.1 | 39.9 | 53 | 22100 | 19200 | 25000 | ≥ 25.5 | ≥ 25.5 | ≥ 25.5 | ≥ 25.5 | CC[C@H](C)[C@H](NC(=O)[C@H](Cc1ccccc1)NC(=O)[C@H](CCC(=O)O)NC(=O)[C@H](C)NC(=O)[C@H](C)NC(=O)[C@H](C)NC(=O)[C@H](CCC(=O)O)NC(=O)CNC(=O)[C@H](CCC(=O)O)NC(=O)[C@H](CC(C)C)NC(=O)[C@](C)(Cc1ccccc1)NC(=O)[C@H](CO)NC(=O)[C@](C)(CO)NC(=O)[C@@H](NC(=O)[C@H](CC(=O)O)NC(=O)[C@H](CO)NC(=O)[C@@H](NC(=O)[C@](C)(Cc1ccccc1)NC(=O)[C@H](CO)NC(=O)CNC(=O)[C@H](CCC(=O)O)NC(=O)C(C)(C)NC(=O)[C@@H](N)Cc1c[nH]cn1)[C@@H](C)O)C(C)C)C(=O)N[C@@H](CCCCNC(=O)COCCOCCNC(=O)COCCOCCNC(=O)CC[C@H](NC(=O)CCCCCCCCCCCCCCCCC(=O)O)C(=O)O)C(=O)N[C@@H](Cc1c[nH]c2ccccc12)C(=O)N[C@H](C(=O)N[C@H](C(=O)N[C@@H](CCC(=O)O)C(=O)NCC(=O)NCC(N)=O)C(C)C)C(C)C [compound 69] (H-H[Aib]EGS[αMeF]TSDV[αMeS]S[αMeF]LEGEAAAEFIK([AEEA-AEEA-γGlu-C18 diacid])WVVEGG-NH2; N-terminus assumed)
5.1 | 2.6 | 3.8 | 326 | 189 | 462 | ≥ 28 | ≥ 28 | ≥ 28 | ≥ 28 | CCCCCCCCCCCC(=O)NCCCCCC(=O)NCCCCCC(=O)NCCCC[C@H](NC(=O)[C@@H](NC(=O)[C@@H](NC(=O)[C@](C)(Cc1ccccc1)NC(=O)[C@H](C)NC(=O)[C@@H](NC(=O)[C@](C)(Cc1ccccc1)NC(=O)[C@H](CCC(=O)O)NC(=O)[C@](C)(CCCCN)NC(=O)[C@H](C)NC(=O)[C@H](C)NC(=O)[C@H](CCC(=O)O)NC(=O)CNC(=O)[C@H](CCC(=O)O)NC(=O)[C@H](CC(C)C)NC(=O)[C@](C)(Cc1ccccc1)NC(=O)[C@H](CO)NC(=O)[C@](C)(CO)NC(=O)[C@@H](NC(=O)[C@H](CC(=O)O)NC(=O)[C@H](CO)NC(=O)[C@@H](NC(=O)[C@](C)(Cc1ccccc1)NC(=O)[C@H](CO)NC(=O)CNC(=O)[C@H](CCC(=O)O)NC(=O)C(C)(C)NC(=O)[C@@H](N)Cc1c[nH]cn1)[C@@H](C)O)C(C)C)[C@@H](C)CC)C(C)C)C(C)C)C(=O)NCC(=O)NCC(N)=O [compound 168]
18 | 15.7 | 17 | 2080 | 2710 | 1450 | ≥ 25 | ≥ 25.2 | ≥ 25 | ≥ 25.2 | CC[C@H](C)[C@H](NC(=O)[C@](C)(Cc1ccccc1)NC(=O)[C@H](CCC(=O)O)NC(=O)[C@](C)(CCCCN)NC(=O)[C@H](C)NC(=O)[C@H](C)NC(=O)[C@H](CCC(=O)O)NC(=O)CNC(=O)[C@H](CCC(=O)O)NC(=O)[C@H](CC(C)C)NC(=O)[C@](C)(Cc1ccccc1)NC(=O)[C@H](CO)NC(=O)[C@](C)(CO)NC(=O)[C@H](CCCCNC(=O)COCCOCCNC(=O)COCCOCCNC(=O)CC[C@H](NC(=O)CCCCCCCCCCCCCCCCC(=O)O)C(=O)O)NC(=O)[C@H](CC(=O)O)NC(=O)[C@H](CO)NC(=O)[C@@H](NC(=O)[C@](C)(Cc1ccccc1)NC(=O)[C@H](CO)NC(=O)CNC(=O)[C@H](CCC(=O)O)NC(=O)C(C)(C)NC(=O)[C@@H](N)Cc1c[nH]cn1)[C@@H](C)O)C(=O)N[C@@H](C)C(=O)N[C@@](C)(Cc1ccccc1)C(=O)N[C@H](C(=O)N[C@H](C(=O)N[C@@](C)(CCCCN)C(=O)NCC(=O)NCC(N)=O)C(C)C)C(C)C [compound 119] (H-H[Aib]EGS[αMeF]TSDK([AEEA-AEEA-γGlu-C18 diacid])[αMeS]S[αMeF]LEGEAA[αMeK]E[αMeF]IA[αMeF]VV[αMeK]GG-NH2; N-terminus assumed)
